Assay results reported in article PMC7587601, “A Rose Extract Protects the Skin against Stress Mediators: A Potential Role of Olfactory Receptors” (Molecules, 2020).

How the values were obtained:
Assay type in all cases: cell-based, human
Details in all cases: epinephrine 56 nM alone, 9 days
loricrin = test: Epinephrine-induced stress model in skin explants, loricrin immunostaining
Description: (§1) To study the potential involvement of ORs in skin response to chronic stress, an ex vivo epinephrine-induced stress model was designed. Three different markers, known to increase under stress conditions, were measured to estimate the stress response of skin (Figure 3A). G6PDH was used as a marker for cell metabolism, loricrin for cell differentiation, and γH2AX for DNA damage.
(§2) For immunohistochemical staining on human skin, 5-μm-thick sections were made. The same primary antibodies were used (anti-OR10A6 (1:200; Abcam, #ab129837), anti-OR11H4 (1:200; ThermoFisher, #PA5-562685), anti-OR2AG2 (1:100; ThermoFisher, #PA5-538166)). […] Image processing was performed using ImageJ 2.0 software. For primary G6PDH (1:100 dilution; Sigma Aldrich, St. Louis, MO, USA, #HPA000247), loricrine (1:1600 dilution; Covance, Princeton, NJ, USA, #PRB-145P), γH2AX (1:800; Abcam, Cambridge, UK, #ab26350) antibodies staining, tissue cryosections were […] and immunostaining was performed using an automated slide processing system (Autostainer Dako, Agilent, Santa Clara, CA, USA). […] Microscopical observations were realized using an Olympus BX43 microscope. Photographs were digitized with a numeric DP72 Olympus camera and CellD storing software (Waltham, MA, USA). The detailed protocols were described in the supplementary materials. […]

γH2AX = test: Epinephrine-induced stress model in skin explants, γH2AX immunostaining
Description: as §1, §2

G6PDH = test: Epinephrine-induced stress model in skin explants, G6PDH immunostaining
Description: as §1, §2

OR10A6 mRNA = OR10A6 mRNA expression in skin explants (RT-qPCR)
Description: (§3) For NHEKs, total RNA was isolated and purified using RNeasy Mini Kit (Qiagen, Hilden, Germany, #74104) following the manufacturer’s protocol. For RNA extraction from skin sections, Trizol (ThermoFisher, Waltham, MA, USA, #15596026) was used following the manufacturer’s protocol. Purity was determined with commercial Agilent kit RNA 6000 Nano Kit (Agilent, Santa Clara, CA, USA, #5067-1511) using Agilent 2100 Bioanalyzer according to the manufacturer’s recommendations and the concentration was quantified with a Nanodrop 2000c (ThermoFisher, Waltham, MA, USA). Real-time quantitative polymerase chain reaction (qRT-PCR) was run in triplicate using TaqMan™ Fast Advanced Master Mix (ThermoFisher, Waltham, MA, USA, #4444557) and gene Expression Assay transcripts (ThermoFisher, Waltham, MA, USA) on the AriaMx Real-time PCR System (Agilent, Santa Clara, CA, USA) according to the manufacturer’s recommendations. Real-time quantification plots and Ct values were collected and stored in AriaMx software (version 2.1). […]
(§4) Human skin explants were recovered from the abdominal tissue of a person and kept in a culture medium at 37 °C, under 5% CO2. […] Each condition was evaluated on 3 different explants and compared to control (untreated explant). […]
(§5) System (Agilent) according to the manufacturer’s recommendations. Real-time quantification plots and Ct values were collected and stored in AriaMx software. […]

OR2AG2 mRNA = OR2AG2 mRNA expression in skin explants (RT-qPCR)
Description: as §3, §4, §5

OR11H4 mRNA = OR11H4 mRNA expression in skin explants (RT-qPCR)
Description: as §3, §4, §5

OR10A6 protein = OR10A6 protein expression in skin explants (immunohistochemistry)
Description: (§6) For immunohistochemical staining on human skin, 5-μm-thick sections were made. The same primary antibodies were used (anti-OR10A6 (1:200; Abcam, #ab129837), anti-OR11H4 (1:200; ThermoFisher, #PA5-562685), anti-OR2AG2 (1:100; ThermoFisher, #PA5-538166)). […] Image processing was performed using ImageJ 2.0 software. […]
as §4
(§7) mounting medium (Santa Cruz, UltraCruz Mounting Medium # sc-24941). […] Cells were observed using a Zeiss microscope and images were analyzed with ImageJ 2.0 software. […]
(§8) observations were realized using an Olympus BX43 microscope. […] Quantification of the proteins of interest (stained purple) was performed through microscopic observation and image analysis. Results were expressed as a percentage of untreated control explants. The relative change (Δ%) between the two tested conditions was also calculated. […]
(§9) AlexaFluor 546 (ThermoFisher, #A11035) goat anti-rabbit IgG secondary antibody, diluted in 1:800 in PBS 1X with 1% BSA, for 1h at room temperature. […] The green channel was used to quantify the fluorescence resulting from OR labelling in the same region. […]

OR2AG2 protein = OR2AG2 protein expression in skin explants (immunohistochemistry)
Description: as §6, §4, §7, §8, §9

OR11H4 protein = OR11H4 protein expression in skin explants (immunohistochemistry)
Description: as §6, §4, §7, §8, §9

## CNC[C@H](O)c1ccc(O)c(O)c1 [epinephrine]
loricrin
  loricrin expression, fold change: 2.3 ± 1.17
γH2AX
  γH2AX expression, fold change: 1.7 ± 0.47
G6PDH
  G6PDH expression, fold change: 1.26 ± 0.19
OR10A6 mRNA
  OR10A6 mRNA level, fold change: 0.45 ± 0.2
OR2AG2 mRNA
  OR2AG2 mRNA level, fold change: 0.51 ± 0.3
OR11H4 mRNA
  OR11H4 mRNA level, fold change: 0.52 ± 0.2
OR10A6 protein
  OR10A6 protein expression, relative intensity staining: 0.77 ± 0.34
OR2AG2 protein
  OR2AG2 protein expression, relative intensity staining: 0.81 ± 0.15
OR11H4 protein
  OR11H4 protein expression: No change
